Measured values published in patent publication US20260109715A1, “IMIDAZOPYRIDINE DERIVATIVES WITH BICYCLIC STRUCTURE” (PUBLIC UNIVERSITY CORPORATION YOKOHAMA CITY UNIVERSITY, priority 2022, published 2026).
pEC50, pIC50: −log10 of the molar value. Structures can show the parent of a compound that is named as a salt.

What was measured:
human SMG1 enzyme = human SMG1 enzyme (Homo sapiens, UniProt Q96Q15); assay: Measurement of SMG1 kinase activity (ADP-Glo Kinase Assay); assay type: biochemical; conditions: purified human SMG1 enzyme 5 nM, Upf1 peptide substrate, ATP 4 μM; qAC50 synonymous with IC50; read-out: Test Example 1 ADP-Glo IC50
Excerpt: The SMG1 kinase inhibitory activity of a compound of the present invention or a pharmaceutically acceptable salt thereof can be measured, for example, by the method described below. Using purified human SMG1 protein and a substrate peptide as materials, the kinase activity can be measured by the ADP-Glo Kinase Assay; the SMG1 kinase inhibitory activity of a test substance can be evaluated by comparing the kinase activity in the presence and absence of the test substance.
The reaction was performed by the ADP-Glo Kinase Assay (Promega, catalog number V9102) using a 384-well plate under the conditions of an assay buffer (100 mM HEPES (pH 7.5), 50 mM NaCl, 10 mM MnCl2, 0.01% BSA, 0.1% Tween 20.5 mM TCEP). After incubating a test substance (DMSO solution; final DMSO concentration: 1%) and purified human SMG1 enzyme (Genes Dev. 2011 Jan. 15; 25(2): 153-164, produced by Daiichi Sankyo RD Novare Co., Ltd.; final concentration: 5 nM) at room temperature for 15 minutes, a substrate, Upf1 peptide (Biotin-(PEG8) QIDVALSQDSTYQG, produced by Eurofins genomics; final concentration: 8 μg/mL), and ATP (Promega: 4 μM) were added, and the mixture was reacted at room temperature for 60 minutes (see Non-Patent Literature R. Melero, et al., Structure Volume 22, Issue 8, 5 Aug. 2014, Pages 1105-1119 for the Upf1 peptide). ADP-Glo Reagent was added, and the mixture was reacted at room temperature for 40 minutes. Kinase Detection Reagent was added, and the mixture was reacted for another 30 minutes. The luminescence intensity was measured using EnVision (PerkinElmer).
The activity value (%) of the test substance-added well was calculated from the following formula, where the average luminescence intensity of the DMSO-added well was 0% and the average luminescence intensity of the SMG1 enzyme-free well was −100%.
The qAC50 (compound concentration showing 50% inhibition, synonymous with IC50) of the test substance was calculated using the activity value (%) at each concentration by Smart fit of Screener (Genedata). Smart fit is a general 4-parameter logistic regression model.

[1] = tested on: Snhg1 transcript (NMD target gene) in EMT6 murine breast cancer cell line; assay: Measurement of NMD inhibitory activity in cells (increase in Snhg1 transcript, real-time PCR); set-up: species or system mouse; conditions: Mus musculus, 6 hours treatment, concentration giving 1/2 of maximum Snhg1 fold change of positive control, read-out: Test Example 2 Cell-based Snhg1 EC50
Method: The NMD inhibitory activity of a compound of the present invention or a pharmaceutically acceptable salt thereof in cells can be measured, for example, by the method described below. EMT6 murine breast cancer cell line is treated with a test substance in vitro for 6 hours, and the increase in the transcript of Snhg1, a known NMD target gene, is quantified as an indicator of NMD inhibition. Quantification is performed by real-time PCR.
NMD inhibitory activity was measured by treating EMT6 murine breast cancer cell line (ATCC) with a test substance and quantifying the increase in the transcript of Snhg1, an NMD target gene (see F. Usui, et al., Scientific Reports volume 9, Article number: 1279 (2019) for the NMD target gene). That is, EMT6 cells were suspended in Waymouth's medium (Gibco, 15% FBS) and seeded in a 96-well plate at 2×10^4 cells/well. The cells were cultured for 1 day. The next day, serially diluted test substance (DMSO solution, final DMSO concentration: 2%) was added. After culturing for 6 hours, the supernatant was removed, and RNA was extracted using the RNeasy 96 kit (QIAGEN, 74182). After synthesizing cDNA using the High Capacity cDNA Reverse Transcription kit (Applied Biosystems, 4368813), the cDNA was mixed with PrimeTime Gene Expression Master Mix (Integrated DNA Technologies) and various probes, and gene expression was quantified using QuantStudio 6 Flex (Thermo Fisher Scientific Inc.). For the probe for the Snhg1 gene, which is an NMD target, Mm.PT.58.44039547 (FAM)(Integrated DNA Technologies) was used, and for the probe for the Tbp gene, which is an endogenous control, Mm00446973_m1 Tbp (VIC-PL) (Applied Biosystems) was used. The relative quantification of Snhg1 transcripts was calculated by the ΔΔCT method, using Thp as an endogenous control and setting the expression level of Snhg1 in untreated wells to 1.
A known NMD inhibitory compound (pyrimidine derivative Example 11i, Bioorg Med Chem Lett. 2012, 22(21), 6636-41) was used as a positive control drug for NMD inhibition. The NMD inhibitory activity of the test substance-added well was calculated as follows: the maximum fold change in Sngh1 expression in the positive control drug-added well relative to that in the untreated well was defined as the maximum NMD inhibitory activity, and the EC50 (compound concentration showing 50%/activity) of the test substance showing a ½-fold change was calculated by the GROWTH function of Microsoft Excel.

Chain of human SMG1 enzyme (Q96Q15 whole entry): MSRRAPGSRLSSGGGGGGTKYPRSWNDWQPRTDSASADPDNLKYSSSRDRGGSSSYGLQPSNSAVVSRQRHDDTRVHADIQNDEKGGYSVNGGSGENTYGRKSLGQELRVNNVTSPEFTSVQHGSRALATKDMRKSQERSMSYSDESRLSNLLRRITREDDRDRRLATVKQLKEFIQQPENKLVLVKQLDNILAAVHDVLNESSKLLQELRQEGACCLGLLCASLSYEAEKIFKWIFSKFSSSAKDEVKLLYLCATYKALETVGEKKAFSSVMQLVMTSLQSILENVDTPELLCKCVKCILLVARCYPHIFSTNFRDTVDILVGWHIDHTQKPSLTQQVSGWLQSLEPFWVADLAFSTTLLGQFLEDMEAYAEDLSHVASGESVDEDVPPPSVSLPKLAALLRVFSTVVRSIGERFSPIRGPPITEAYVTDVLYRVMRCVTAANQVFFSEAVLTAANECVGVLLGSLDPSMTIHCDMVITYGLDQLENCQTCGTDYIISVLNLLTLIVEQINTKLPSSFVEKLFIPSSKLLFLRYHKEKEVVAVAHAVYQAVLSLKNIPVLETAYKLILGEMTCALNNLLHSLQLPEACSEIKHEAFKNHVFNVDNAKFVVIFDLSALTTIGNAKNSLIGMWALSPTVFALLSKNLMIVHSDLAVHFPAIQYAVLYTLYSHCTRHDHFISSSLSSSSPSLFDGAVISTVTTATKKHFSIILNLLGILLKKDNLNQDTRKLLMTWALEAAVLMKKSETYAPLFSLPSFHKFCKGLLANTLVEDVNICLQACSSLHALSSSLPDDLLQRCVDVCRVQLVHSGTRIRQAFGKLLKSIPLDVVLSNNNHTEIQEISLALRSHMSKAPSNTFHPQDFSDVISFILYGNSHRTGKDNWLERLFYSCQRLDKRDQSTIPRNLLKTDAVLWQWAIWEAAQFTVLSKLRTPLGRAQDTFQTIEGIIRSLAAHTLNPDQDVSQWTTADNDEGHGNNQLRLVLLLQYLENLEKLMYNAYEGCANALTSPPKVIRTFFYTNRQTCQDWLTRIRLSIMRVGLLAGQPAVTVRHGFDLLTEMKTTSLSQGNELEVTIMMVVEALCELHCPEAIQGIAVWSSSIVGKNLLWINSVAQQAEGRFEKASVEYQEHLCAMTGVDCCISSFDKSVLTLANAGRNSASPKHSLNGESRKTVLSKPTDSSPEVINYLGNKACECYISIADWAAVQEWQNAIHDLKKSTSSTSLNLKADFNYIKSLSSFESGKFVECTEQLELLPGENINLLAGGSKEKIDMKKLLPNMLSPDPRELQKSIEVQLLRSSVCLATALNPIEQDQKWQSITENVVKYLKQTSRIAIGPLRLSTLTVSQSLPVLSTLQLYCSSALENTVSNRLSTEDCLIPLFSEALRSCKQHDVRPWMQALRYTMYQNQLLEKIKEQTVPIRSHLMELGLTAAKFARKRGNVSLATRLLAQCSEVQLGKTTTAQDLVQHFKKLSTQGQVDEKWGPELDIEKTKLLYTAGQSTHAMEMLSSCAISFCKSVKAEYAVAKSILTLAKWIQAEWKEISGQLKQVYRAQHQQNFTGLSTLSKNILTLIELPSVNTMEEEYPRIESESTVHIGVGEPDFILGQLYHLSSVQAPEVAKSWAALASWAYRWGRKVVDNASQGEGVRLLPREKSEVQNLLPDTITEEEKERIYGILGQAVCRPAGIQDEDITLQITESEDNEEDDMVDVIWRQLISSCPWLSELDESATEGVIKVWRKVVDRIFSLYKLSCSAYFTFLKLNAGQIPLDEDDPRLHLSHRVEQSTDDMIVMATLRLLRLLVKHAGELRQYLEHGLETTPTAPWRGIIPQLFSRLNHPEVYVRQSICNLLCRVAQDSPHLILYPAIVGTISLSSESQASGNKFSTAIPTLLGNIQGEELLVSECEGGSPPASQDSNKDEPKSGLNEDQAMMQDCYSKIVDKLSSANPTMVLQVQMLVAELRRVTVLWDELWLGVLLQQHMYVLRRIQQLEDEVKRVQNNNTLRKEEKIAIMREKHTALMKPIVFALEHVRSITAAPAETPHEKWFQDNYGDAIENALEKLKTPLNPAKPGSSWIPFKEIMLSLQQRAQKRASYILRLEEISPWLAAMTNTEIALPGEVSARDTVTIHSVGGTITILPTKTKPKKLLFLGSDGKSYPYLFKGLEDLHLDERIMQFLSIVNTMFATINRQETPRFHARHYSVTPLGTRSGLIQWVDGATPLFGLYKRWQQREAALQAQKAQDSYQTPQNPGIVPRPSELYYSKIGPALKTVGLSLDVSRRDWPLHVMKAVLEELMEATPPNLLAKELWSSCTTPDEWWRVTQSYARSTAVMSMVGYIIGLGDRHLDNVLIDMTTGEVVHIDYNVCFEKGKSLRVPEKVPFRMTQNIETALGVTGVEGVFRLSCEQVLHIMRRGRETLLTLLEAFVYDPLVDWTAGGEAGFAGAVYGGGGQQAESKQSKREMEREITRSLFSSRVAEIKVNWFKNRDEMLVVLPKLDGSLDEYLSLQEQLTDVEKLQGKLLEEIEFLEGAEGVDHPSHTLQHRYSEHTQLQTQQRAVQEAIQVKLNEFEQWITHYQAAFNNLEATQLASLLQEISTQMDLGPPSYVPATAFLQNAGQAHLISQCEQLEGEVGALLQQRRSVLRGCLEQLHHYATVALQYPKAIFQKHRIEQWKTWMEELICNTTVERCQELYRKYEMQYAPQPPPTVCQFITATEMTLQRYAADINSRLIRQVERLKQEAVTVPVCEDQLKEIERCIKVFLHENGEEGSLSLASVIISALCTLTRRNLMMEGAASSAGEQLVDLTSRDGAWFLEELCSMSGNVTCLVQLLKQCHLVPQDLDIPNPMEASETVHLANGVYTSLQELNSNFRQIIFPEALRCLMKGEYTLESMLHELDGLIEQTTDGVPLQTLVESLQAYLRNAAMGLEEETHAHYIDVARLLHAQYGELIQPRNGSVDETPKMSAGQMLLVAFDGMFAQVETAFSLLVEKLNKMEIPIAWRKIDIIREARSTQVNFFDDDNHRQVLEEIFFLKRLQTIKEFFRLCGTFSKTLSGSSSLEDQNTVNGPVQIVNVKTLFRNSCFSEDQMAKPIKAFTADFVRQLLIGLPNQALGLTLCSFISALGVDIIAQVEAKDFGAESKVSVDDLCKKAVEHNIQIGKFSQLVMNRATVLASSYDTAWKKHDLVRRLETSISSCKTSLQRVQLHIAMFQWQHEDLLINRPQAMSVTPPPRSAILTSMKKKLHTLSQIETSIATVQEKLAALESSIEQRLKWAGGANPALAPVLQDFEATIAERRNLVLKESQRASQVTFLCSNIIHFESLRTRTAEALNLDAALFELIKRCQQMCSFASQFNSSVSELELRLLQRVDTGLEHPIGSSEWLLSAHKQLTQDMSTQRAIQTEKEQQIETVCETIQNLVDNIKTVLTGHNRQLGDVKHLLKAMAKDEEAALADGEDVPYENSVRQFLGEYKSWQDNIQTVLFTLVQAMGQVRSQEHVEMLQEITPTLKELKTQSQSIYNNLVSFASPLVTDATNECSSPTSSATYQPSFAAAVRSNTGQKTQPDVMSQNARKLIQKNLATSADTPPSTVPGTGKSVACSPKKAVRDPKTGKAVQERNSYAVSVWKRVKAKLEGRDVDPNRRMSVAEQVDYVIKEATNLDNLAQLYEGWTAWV

Structure (SMILES)	pIC50 (human SMG1 enzyme)	pEC50 [1]
O=C(C1CC1)N1CCC=C(c2nccc3[nH]c(=O)c(-c4nc5cnc(Cl)cc5[nH]4)cc23)C1 [Example 105, 3-(6-chloro-1H-imidazo[4,5-c]pyridin-2-yl)-5-[1-(cyclopropylcarbonyl)-1,2,5,6-tetrahydropyridin-3-yl]-1,6-naphthyridin-2(1H)-one]	8.82	7.23
Nc1cccc(-c2nc(Cl)cc3[nH]c(-c4cc5cnccc5[nH]c4=O)nc23)c1 [Example 24, 3-[4-(3-aminophenyl)-6-chloro-1H-imidazo[4,5-c]pyridin-2-yl]-1H-1,6-naphthyridin-2-one trifluoroacetate]	8.66	7.12
COc1ccccc1-c1nccc2c1CN(c1nc3cnc(Cl)cc3[nH]1)C(=O)N2 [Example 103, 3-(6-chloro-1H-imidazo[4,5-c]pyridin-2-yl)-5-(2-methoxyphenyl)-3,4-dihydropyrido[4,3-d]pyrimidin-2(1H)-one]	8.48	7.15
O=C1Nc2ccnc(-c3ccccc3Cl)c2CN1c1nc2cnc(Cl)cc2[nH]1 [Example 102, 3-(6-chloro-1H-imidazo[4,5-c]pyridin-2-yl)-5-(2-chlorophenyl)-3,4-dihydropyrido[4,3-d]pyrimidin-2(1H)-one]	8.55	7.12
COc1nc(C)ccc1-c1nccc2[nH]c(=O)c(-c3nc4cnc(Cl)cc4[nH]3)cc12 [Example 66, 3-(6-chloro-1H-imidazo[4,5-c]pyridin-2-yl)-5-(2-methoxy-6-methylpyridin-3-yl)-1,6-naphthyridin-2(1H)-one]	8.66	7.17
O=c1[nH]c2ccnc(C3CCCCN(S(=O)(=O)c4ccccc4)C3)c2cc1-c1nc2cnc(Cl)cc2[nH]1 (centres unmarked) [Example 106, 3-(6-chloro-1H-imidazo[4,5-c]pyridin-2-yl)-5-[1-(phenylsulfonyl)azepan-3-yl]-1,6-naphthyridin-2(1H)-one]	8.60	7.06
Cc1c(-c2nccc3[nH]c(=O)c(-c4nc5cnc(Cl)cc5[nH]4)cc23)c(C2CC2)nn1CC(F)F [Example 93, 3-(6-chloro-1H-imidazo[4,5-c]pyridin-2-yl)-5-[3-cyclopropyl-1-(2,2-difluoroethyl)-5-methyl-1H-pyrazol-4-yl]-1,6-naphthyridin-2(1H)-one]	8.92	7.09
COc1cc(C2CC2)ncc1-c1nccc2[nH]c(=O)c(-c3nc4cnc(Cl)cc4[nH]3)cc12 [Example 62, 3-(6-chloro-1H-imidazo[4,5-c]pyridin-2-yl)-5-(6-cyclopropyl-4-methoxypyridin-3-yl)-1,6-naphthyridin-2(1H)-one]	9.02	7.80

The remaining molecules from weak to strong by pIC50 (human SMG1 enzyme), led by results:

pIC50 (human SMG1 enzyme)	pEC50 [1]	Structure (SMILES)
8.47	7.62	C[C@@H]1C[C@@H](F)CN1c1nc(Cl)cc2[nH]c(-c3cc4c(C5CCOCC5)nccc4[nH]c3=O)nc12 [Example 119, 3-{6-chloro-4-[(2R,4R)-4-fluoro-2-methylpyrrolidin-1-yl]-1H-imidazo[4,5-c]pyridin-2-yl}-5-(tetrahydro-2H-pyran-4-yl)-1,6-naphthyridin-2(1H)-one methanesulfonate]
8.66	7.55	CCc1nccc2[nH]c(=O)c(-c3nc4c(N5CC[C@H](O)[C@H]5C)nc(Cl)cc4[nH]3)cc12 [Example 122, 3-{6-chloro-4-[(2R,3S)-3-hydroxy-2-methylpyrrolidin-1-yl]-1H-imidazo[4,5-c]pyridin-2-yl}-5-ethyl-1,6-naphthyridin-2(1H)-one methanesulfonate]
8.85	8.07	CC(C1CCOCC1)N(C)c1nc(Cl)cc2[nH]c(-c3cc4cnccc4[nH]c3=O)nc12 (centres unmarked) [Example 6, 3-(6-chloro-4-{methyl[1-(tetrahydro-2H-pyran-4-yl)ethyl]amino}-1H-imidazo[4,5-c]pyridin-2-yl)-1,6-naphthyridin-2(1H)-one]
8.85	7.52	CN(c1nc(Cl)cc2[nH]c(-c3cc4cnccc4[nH]c3=O)nc12)[C@H]1CC[C@H](O)CC1 [Example 5, 3-{6-chloro-4-[(trans-4-hydroxycyclohexyl)(methyl)amino]-1H-imidazo[4,5-c]pyridin-2-yl}-1,6-naphthyridin-2(1H)-one]
8.89	8.96	Cc1c2cccc1-c1nccc3[nH]c(=O)c(cc13)-c1nc3c(nc(Cl)cc3[nH]1)N1CCCN(CC1)C(=O)CO2 [Example 110, 7-chloro-32-methyl-17-oxa-3,8,10,14,24,28,35-heptaazaheptacyclo[21.6.2.2^10,14.1^2,5.1^18,22.0^4,9.0^27,31]pentatriacont-1(30),2,4,6,8,18(32),19,21,23(31),24,26-undecaen-15,29-dione]
8.92	7.42	O=C1CCn2cc(cn2)-c2nccc3[nH]c(=O)c(cc23)-c2nc3c(nc(Cl)cc3[nH]2)N2CCCN1CC2 [Example 116, 7-chloro-3,8,10,14,18,19,23,27,34-nonaazaheptacyclo[20.6.2.2^10,14.1^2,5.1^18,21.0^4,9.0^26,30]tetratriacont-1(29),2,4,6,8,19,21(31),22(30),23,25-decaen-15,28-dione]
8.96	8.32	[2H]C([2H])([2H])Oc1ccccc1-c1nccc2[nH]c(=O)c(-c3nc4c(C(C)F)nc(Cl)cc4[nH]3)cc12 (centres unmarked) [Example 41, 3-[6-chloro-4-(1-fluoroethyl)-1H-imidazo[4,5-c]pyridin-2-yl]-5-{2-[(^2H3)methyloxy]phenyl}-1,6-naphthyridin-2(1H)-one]
9.00	8.55	CCc1nc(Cl)cc2[nH]c(-c3cc4c(-c5ccccc5F)nccc4[nH]c3=O)nc12 [Example 27, 3-(6-chloro-4-ethy1-1H-imidazo[4,5-c]pyridin-2-y1)-5-(2-fluorophenyl)-1,6-naphthyridin-2(1H)-one]
9.04	8.17	COc1nc(C)ncc1-c1nccc2[nH]c(=O)c(-c3nc4c(NCC(F)F)nc(Cl)cc4[nH]3)cc12 [Example 69, 3-(6-chloro-4-[(2,2-difluoroethyl)amino]-1H-imidazo[4,5-c]pyridin-2-yl)-5-(4-methoxy-2-methylpyrimidin-5-yl)-1,6-naphthyridin-2(1H)-one]
9.16	7.82	COc1cc(C(C)(F)F)ncc1-c1nccc2[nH]c(=O)c(-c3nc4c(C)nc(Cl)cc4[nH]3)cc12 [Example 65, 3-(6-chloro-4-methyl-1H-imidazo[4,5-c]pyridin-2-yl)-5-[6-(1,1-difluoroethyl)-4-methoxypyridin-3-yl]-1,6-naphthyridin-2(1H)-one]
9.23	7.85	CCc1nc(Cl)cc2[nH]c(-c3cc4c(-c5c(C)nn(C)c5C)nccc4[nH]c3=O)nc12 [Example 89, 3-(6-chloro-4-ethyl-1H-imidazo[4,5-c]pyridin-2-yl)-5-(1,3,5-trimethyl-1H-pyrazol-4-yl)-1,6-naphthyridin-2(1H)-one]
